In patent publication US20230226027A1, “THIENOPYRIDINE DERIVATIVES FOR USE IN THE TREATMENT OF CORONAVIRUS INFECTION” (INSERM (INSTITUT NATIONAL DE LA SANTÉ ET DE LA RECHERCHE …, priority 2020, published 2023):
Like-named read-outs stand apart in the source and are kept apart here.

What was measured:
SARS-CoV-2 [1] = type: cell-based; conditions: Calu-3 cells, concentration ≥ 10 µM, even when given 4 h post-infection, TCID50 24 hours post-infection (FIG. 4)
SARS-CoV-2 [2] = type: cell-based; conditions: VeroE6 cells, 1 h pretreatment, MOI 0.001, viral RNA in supernatant 24 hours post-infection (FIG. 1)
SARS-CoV-2 [3] = type: cell-based; conditions: Calu-3 cells, 2 h pre-treatment, MOI 0.001, 24 hours post-infection (FIGS. 2A-2B)
Calu-3 cells = assay: Cellular viability assay (MTT) in Calu-3 cells; type: cell-based, human; conditions: 24 hours of treatment, MTT (FIG. 3)
Protocol: FIG. 3. Analysis of cellular viability in human lung epithelial Calu-3 cells treated with AM-001. Calu-3 cells treated for 24 hours with the indicated concentrations of AM-001. Cellular viability was measured with the Cell Proliferation Kit I (MTT) (Roche Applied Science, Indianapolis, IN) according to the manufacturer’s protocol.
Calu-3 cells were plated 48 hours before treatment in 96-wells plates at a density of 1.10^5 cells per well. After 24 hours of treatment with the different concentrations of AM-001, cells viability was measured using the Cell Proliferation Kit I (MTT) (Roche Applied Science, Indianapolis, IN) according to the manufacturer’s protocol.

Nc1c(C(=O)Nc2ccc(F)cc2)sc2nc(-c3cccs3)cc(-c3ccccc3)c12 [AM-001]
infectious virus production (SARS-CoV-2 [1]): totally blocks infectious virus production
replication of SARS-CoV-2 (SARS-CoV-2 [2]): Inhibition of SARS-CoV-2 replication
replication of SARS-CoV-2 (SARS-CoV-2 [2]; listed as AM001): significantly decreases the replication
SARS CoV-2 replication (viral RNA and infectious particles in supernatant) (SARS-CoV-2 [3]): inhibit SARS CoV-2 replication
cellular toxicity (Calu-3 cells): no detected cellular toxicity
